Test results: patent US20090298169A1, “Pancreatic and Liver Endoderm Cells and Tissue by Differentiation of Definitive Endoderm Cells Obtained from Human Embryonic Stems” (The University of Georgia Research Foundation, priority 2006, published 2009)

Columns and labels:
[1] = tested on: human definitive endoderm cells (DE); experiment: Pancreatic endoderm formation from definitive endoderm with retinoic acid in FCS base media (Pdx1, Isl1 markers); assay type: cell-based
Procedure: (§1) BG01 hESCs were treated with LY 294002 (50 μM) for four days then switched to media containing DMEM/F12, 10% FCS, 50 ng/ml Fgf10 and 2 μM retinoic acid for up to four days. Untreated-untreated hESCs. Transcript levels were analyzed by QRT-PCR in triplicate and shown as the fold-increase over untreated samples (hESCs) after normalization to GAPDH reference transcript. Fold-induction of Pdx1 transcript levels are indicated.
as §1, with “consisting of” for “containing”, “Untreated: untreated” for “Untreated-untreated”, “transcript.” for “transcript. Fold-induction of Pdx1 transcript levels are indicated.”
The present invention relates to pancreatic endoderm cells (PE) which are obtained from definitive endoderm cells by exposing the definitive endoderm cells to an effective concentration of retinoic acid (at least about 0.05-0.1 μg/ml, preferably about 0.1-25 μg/ml, more preferably about 0.1-2.0 μg/ml) in base media comprising an effective amount of fetal calf serum (FCS— preferably about 10% of the base media plus serum) for a period of at least about 2 days, preferably at least about 4 days, and more preferably about 4 days, followed by exposing the cells obtained from the first step to FCS (preferably, about 10%) in base media for at least one day, preferably at least about 2 days in the absence of retinoic acid. This method preferably results in at least about 35-50% and preferably at least about 70-80+% of the cells in the treated sample expressing the pancreatic endoderm markers, Pdx1 and Isl1.
Definitive endoderm cells (from treatment above) are washed 2× with PBS. 2-3 ml Trypsin/EDTA solution is added and cells are triturated and collected in a 15 ml conical tube. DMEM/F12 with 10% FBS is added to stop the trypsinization and the cells are centrifuged at 200×g for 5 minutes. […]

[2] = tested on: PI3-kinase signaling pathway; experiment: Western blot analysis of PI3-kinase signaling pathway activity (phosphorylated PKB/Akt, S6 kinase, S6 protein); assay type: cell-based, human; settings: BG01 cells maintained in the presence of inhibitor
Procedure: Activity of the PI3-kinase signaling pathway may be assessed by Western blot analysis. Briefly, detergent extracts are prepared from untreated and treated cell cultures, separated by SDS-PAGE and blotted to nitrocellulose. Expression of active forms of the PI3-kinase intracellular targets PKB/Akt, S6 kinase and S6 protein are then determined by probing the nitrocellulose with appropriate antibodies to phosphorylated forms of each of these proteins. Generally, 30 μg of total protein are evaluated for each sample, primary incubations were carried out at a 1:1000 dilution of antibody, and binding in each case is detected by standard ECL based methodology.

BG01 cells [3] = experiment: Morphology of BG01 hES cells cultured with PI3-kinase pathway inhibitors (standard microscopy); assay type: cell-based, human
Procedure: BG01 cells are passaged from feeders using the collagenase/trypsin method and are plated on matrigel coated dishes at 1×10^5 cells/35 mm dish in conditioned medium (CM; MEF conditioned medium plus 8 ng/ml bFGF). After approximately 24 hours, the media is replaced with fresh CM, CM with inhibitor (resuspended in EtOH), CM with EtOH, or with Spontaneous Differentiation medium (hES medium minus bFGF).
In alternative methods, the BG01 cells may be plated at different concentrations prior to contact with CM, CM with inhibitor and CM with EtOH Cells may be plated at the following concentrations: approximately 5×10^4 cells/35 mm dish, approximately 1×10^5 cells/35 mm dish, approximately 2×10^5 cells/35 mm dish, approximately 4×10^5 cells/35 mm dish and, approximately 6×10^5 cells/35 mm dish.
The inhibitor LY 294002 (Biomol) may be preferably used at the concentration range approximately 20-163 μM and the inhibitor Rapamycin (Calbiochem) is used at the concentration range approximately 1.5-30 nM. LY 294002 inhibits the PI3-kinase pathway by binding to the ATP docking site of p110. Rapamycin inhibits a subset of the PI3-kinase pathway by inhibiting mTOR (mammalian target of rapamycin).
Cells are grown in these conditions for approximately 72 hours with a medium change every 24 hours. Cells are harvested using the collagenase/trypsin method for flow cytometry and RT-PCR analysis and are scraped for biochemical analysis.
In undifferentiated cultures, individual cells are not easily discernable, being relatively small, irregular and without clearly apparent intercellular junctions at higher density. […] Individual cells are also more readily discernable at higher densities since discrete intercellular adhering junctions are evident between neighboring cells.

BG01 cells [4] = experiment: RT-PCR analysis of differentiation markers in inhibitor treated BG01 cells; assay type: cell-based, human
Procedure: (§2) The inhibitor studies are performed as described in Example 2.
Total RNA is isolated using TRIzol Reagent (GibcoBRL). RNA is run on a 1% agarose gel containing ethidium bromide and visualized using the AlphaImager™ 2200 Documentation and Analysis System to ensure RNA integrity. 10 μg of RNA is treated with DNase (Ambion), which is removed with DNase Inactivation Reagent (Ambion). cDNA is prepared with 500 ng of total RNA using the Superscript II Reverse transcriptase Kit (Invitrogen) using oligo(dT) primers. PCR reactions are carried out on 1 μl of cDNA. PCR products are run on a 2% agarose gel containing ethidium bromide and visualized using the Alphaamager™ 2200 Documentation and Analysis System. PCR primer sets used were GATA4, Mix1, Msx1, AFP, HNF4alpha, eHAND, Nanog, AFP and GAPDH.

BG01 cells [5] = experiment: Flow cytometry of cell surface markers (CD9) on inhibitor treated BG01 cells; assay type: cell-based, human
Procedure: as §2
For flow cytometry, the BG01 cells are washed with 1×PBS and fixed in 2% paraformaldehyde/1×PBS for 10 minutes at room temperature. The cells are then washed in 1×PBS and approximately 2×10^5 cells are incubated with primary antibody diluted in 1% BSA/1×PBS. The primary antibodies used are anti-CD9 and anti-thrombomodulin (Cymbus Biotechnology), FITC conjugated mouse monoclonal antibodies at a 1:10 dilution. Cells are incubated at 4° C. for 30 minutes and then washed twice in 1×PBS. Where appropriate, cells are resuspended in a secondary antibody, anti-mouse Alexa-488 (Molecular Probes) diluted 1:1000 in 1% BSA/PBS, incubated at 4° C. for 30 minutes, and then washed twice in 1×PBS. Cells are resuspended in 1% BSA/1×PBS and surface expression is analyzed using a Beckman Coulter FC500.

BG01 hESCs = experiment: AFP transcript induction (QRT-PCR) following treatment of definitive endoderm; assay type: cell-based, human; settings: DE from LY 294002 (50 μM, four days), then DMEM/F12, 10% FCS up to six more days, presence or absence of Fgf10
Procedure: (§3) BG01 hESCs were differentiated into definitive endoderm for four days following the addition of LY 294002 (50 μM). Media was changed to DMEM/F12, 10% FCS and cells grown for up to six more days. Untreated: untreated hESCs. AFP transcript levels were analyzed by QRT-PCR in triplicate and shown as the fold-increase over untreated samples (hESCs) after normalization to GAPDH reference transcript.
as §3, with “The first example relates to the generation of cells expressing the embryonic liver marker alphafetoprotein (AFP) following treatment of definitive endoderm. BG01” for “BG01”

With CC1=C(/C=C/C(C)=C/C=C/C(C)=C/C(=O)O)C(C)(C)CCC1 [retinoic acid, all-trans retinoic acid] the “homogeneity of differentiated cells” value ([1]; definitive endoderm cells cultured with retinoic acid in basal cell media) was “greater homogeneity than spontaneously differentiated cells”, the Isl1 expression ([1]; following treatment) was “marked increase” and the “population of cells pure for the PE markers Pdx1 and Isl1” value ([1]; from definitive endoderm cells) was 70-80%.

In the case of O=c1cc(N2CCOCC2)oc2c(-c3ccccc3)cccc12 [LY 294002, 2-(4-Morpholinyl)-8-phenyl-4H-1-benzopyran-4-one], the “activity of Akt” value [2] is reported as “inhibited”, the “activity of S6” value [2] is reported as “inhibited” and the “activity of S6 kinase” value [2] is reported as “inhibited”. For the same molecule, the “cell spreading and morphology after treatment” value (BG01 cells [3]; BG01 cells after treatment, compared with undifferentiated cultures) was “marked spreading and adopted obvious epitheloid cuboidal morphologies”, the “changes in morphology at high plating density” value (BG01 cells [3]; cells plated at approximately 4×10^5 cells/35 mm dish or higher) was “do not demonstrate the same morphological changes” and the “changes in morphology at low plating density” value (BG01 cells [3]; cells plated lower than approximately 2×10^5 cells/35 mm dish) was “display changes in morphology”. The “morphological change of BG01 cells” value (BG01 cells [3]; cultured in the presence of inhibitor, matrigel, conditioned medium, approximately 72 hours) was “undergo morphological change”, the “markers indicative of early differentiation” value (BG01 cells [4]) was “may be detected” and the “cell surface CD markers expressed by undifferentiated hES cells (CD9, 27, 30, 46, 58 and 81)” value (BG01 cells [5]; after LY treatment) was “loss of a subset of cell surface CD markers”. The “expression of CD9” value (BG01 cells [5]; compared with spontaneous differentiation in adherent culture or embryoid bodies) was “may decrease more rapidly”.

B1: Fgf10: fibroblast growth factor 10 (protein, UniProt O15520 38-208, looked up)
Fibroblast growth factor 10: QALGQDMVSPEATNSSSSSFSSPSSAGRHVRSYNHLQGDVRWRKLFSFTKYFLKIEKNGKVSGTKKENCPYSILEITSVEIGVVAVKAINSNYYLAMNKKGKLYGSKEFNNDCKLKERIEENGYNTYASFNWQHNGRQMYVALNGKGAPRRGQKTRRKNTSAHFLPMVVHS
With B1 the AFP induction (BG01 hESCs) was “optimal AFP induction”.
